Source: patent US10004701B2, “Methods and compositions for treating infection” (UNIVERSITY OF ROCHESTER, priority 2012, dated 2018)
Counter-ions that a name gives are not always drawn. Like-named read-outs stand apart in the source and are kept apart here.

How the values were obtained:
Test in all cases: AK assay 384-well format, Prestwick library screening
P. aeruginosa = type: cell-based, Pseudomonas aeruginosa; conditions: 50 μM final drug concentration; for fold induction at 50 µM: Pseudomonas aeruginosa, 3 h
E. cloacae = type: cell-based, Enterobacter cloacae; conditions: 50 μM final drug concentration; for fold induction at 50 µM: Enterobacter cloacae, 3 h
E. coli = type: cell-based, Escherichia coli; conditions: 50 μM final drug concentration; for fold induction at 50 µM: Escherichia coli, 3 h
E. faecium = type: cell-based, Enterococcus faecium; conditions: 50 μM final drug concentration; for fold induction at 50 µM: Enterococcus faecium, 3 h
K. pneumoniae = type: cell-based, Klebsiella pneumoniae; conditions: 50 μM final drug concentration; for fold induction at 50 µM: Klebsiella pneumoniae, 3 h
[1] = test system: A. baumannii strain 98-37-09; type: cell-based, Acinetobacter baumannii; conditions: 50 μM final drug concentration; for fold induction at 50 µM: Acinetobacter baumannii, 983709, 3 h
[2] = test system: S. aureus strain USA300-0114; type: cell-based, Staphylococcus aureus; conditions: 50 μM final drug concentration; for fold induction at 50 µM: Staphylococcus aureus, USA300, 3 h
[3] = planktonic P. aeruginosa, 384-well, cutoff for positive-scoring molecules 3-fold increase, read-out: AK-based Prestwick Library Screening Results: P. aeruginosa (increase in extracellular AK activity)
[4] = planktonic E. cloacae, 384-well, cutoff for positive-scoring molecules 3-fold increase, read-out: AK-based Prestwick Library Screening Results: E. cloacae (increase in extracellular AK activity)
[5] = planktonic E. coli, 384-well, cutoff for positive-scoring molecules 3-fold increase, read-out: AK-based Prestwick Library Screening Results: E. coli (increase in extracellular AK activity)
[6] = planktonic E. faecium, 384-well, cutoff for positive-scoring molecules 3-fold increase, read-out: AK-based Prestwick Library Screening Results: E. faecium (increase in extracellular AK activity)
[7] = planktonic K. pneumoniae, 384-well, cutoff for positive-scoring molecules 3-fold increase, read-out: AK-based Prestwick Library Screening Results: K. pneumoniae (increase in extracellular AK activity)
[8] = planktonic A. baumannii, 384-well, cutoff for positive-scoring molecules 3-fold increase, read-out: AK-based Prestwick Library Screening Results: A. baumannii (increase in extracellular AK activity)
[9] = planktonic S. aureus, 384-well, cutoff for positive-scoring molecules 3-fold increase, read-out: AK-based Prestwick Library Screening Results: S. aureus (increase in extracellular AK activity)

`CO[C@@]1(NC(=O)C2SC(=C(C(N)=O)C(=O)O)S2)C(=O)N2C(C(=O)O)=C(CSc3nnnn3C)CS[C@@H]21` (stereo partly drawn) [Cefotetan] gave a fold induction at 50 µM (P. aeruginosa; planktonic, cutoff for positive 3-fold increase, read-out: AK-based Prestwick Library Screening Results, P. aeruginosa (fold increase in extracellular AK activity)) of 1.2, a fold induction at 50 µM (E. cloacae; planktonic, cutoff for positive 3-fold increase, read-out: AK-based Prestwick Library Screening Results, E. cloacae (fold increase in extracellular AK activity)) of 25.3 and a fold induction at 50 µM (E. coli; planktonic, cutoff for positive 3-fold increase, read-out: AK-based Prestwick Library Screening Results, E. coli (fold increase in extracellular AK activity)) of 22.1. It also gave a fold induction at 50 µM (E. faecium; planktonic, cutoff for positive 3-fold increase, read-out: AK-based Prestwick Library Screening Results, E. faecium (fold increase in extracellular AK activity)) of 1.2, a fold induction at 50 µM (K. pneumoniae; planktonic, cutoff for positive 3-fold increase, read-out: AK-based Prestwick Library Screening Results, K. pneumoniae (fold increase in extracellular AK activity)) of 8.4 and a fold induction at 50 µM ([1]; planktonic, cutoff for positive 3-fold increase, read-out: AK-based Prestwick Library Screening Results, A. baumannii (fold increase in extracellular AK activity)) of 2. For the same compound, the fold induction at 50 µM ([2]; planktonic, cutoff for positive 3-fold increase, read-out: AK-based Prestwick Library Screening Results, S. aureus (fold increase in extracellular AK activity)) was 2.5.
With `CN[C@@H]1[C@@H](O)[C@@H](O[C@@H]2[C@@H](O)[C@H](O[C@H]3OC(CN)=CC[C@H]3N)[C@@H](N)C[C@H]2N)OC[C@]1(C)O` [Sisomicin sulfate] the fold induction at 50 µM (P. aeruginosa; planktonic P. aeruginosa, cutoff for positive-scoring molecules 3-fold increase, read-out: AK-based Prestwick Library Screening Results, P. aeruginosa (increase in extracellular AK activity)) was 0.9, the fold induction at 50 µM (E. cloacae; planktonic E. cloacae, cutoff for positive-scoring molecules 3-fold increase, read-out: AK-based Prestwick Library Screening Results, E. cloacae (increase in extracellular AK activity)) was 1 and the fold induction at 50 µM (E. coli; planktonic E. coli, cutoff for positive-scoring molecules 3-fold increase, read-out: AK-based Prestwick Library Screening Results, E. coli (increase in extracellular AK activity)) was 0.8. It also gave a fold induction at 50 µM (E. faecium; planktonic E. faecium, cutoff for positive-scoring molecules 3-fold increase, read-out: AK-based Prestwick Library Screening Results, E. faecium (increase in extracellular AK activity)) of 0.9, a fold induction at 50 µM (K. pneumoniae; planktonic K. pneumoniae, cutoff for positive-scoring molecules 3-fold increase, read-out: AK-based Prestwick Library Screening Results, K. pneumoniae (increase in extracellular AK activity)) of 0.6 and a fold induction at 50 µM ([1]; planktonic A. baumannii, cutoff for positive-scoring molecules 3-fold increase, read-out: AK-based Prestwick Library Screening Results, A. baumannii (increase in extracellular AK activity)) of 0.9. It also gave a fold induction at 50 µM ([2]; planktonic S. aureus, cutoff for positive-scoring molecules 3-fold increase, read-out: AK-based Prestwick Library Screening Results, S. aureus (increase in extracellular AK activity)) of 0.6.
For `COc1ccc([C@@H]2CC(=O)c3c(O)cc(O[C@@H]4O[C@H](CO[C@@H]5O[C@@H](C)[C@H](O)[C@@H](O)[C@H]5O)[C@@H](O)[C@H](O)[C@H]4O)cc3O2)cc1O` [Hesperidin], the “AK-based Prestwick Library Screening Results, P. aeruginosa (fold increase in extracellular AK activity)” value (P. aeruginosa; planktonic, […]) was 1.0, the “AK-based Prestwick Library Screening Results, E. cloacae (fold increase in extracellular AK activity)” value (E. cloacae; planktonic, […]) was 1.4 and the “AK-based Prestwick Library Screening Results, E. coli (fold increase in extracellular AK activity)” value (E. coli; planktonic, […]) was 1.1. The “AK-based Prestwick Library Screening Results, E. faecium (fold increase in extracellular AK activity)” value (E. faecium; planktonic, […]) was 1.1, the “AK-based Prestwick Library Screening Results, K. pneumoniae (fold increase in extracellular AK activity)” value (K. pneumoniae; planktonic, […]) was 1.0 and the “AK-based Prestwick Library Screening Results, A. baumannii (fold increase in extracellular AK activity)” value ([1]; planktonic, […]) was 1.2. The “AK-based Prestwick Library Screening Results, S. aureus (fold increase in extracellular AK activity)” value ([2]; planktonic, […]) was 1.3.
In the case of `CC(=O)OCC1=C(C(=O)O)N2C(=O)[C@@H](NC(=O)Cc3cccs3)[C@H]2SC1` [Cephalothin sodium salt], the fold induction at 50 µM (P. aeruginosa; cutoff for positive-scoring molecules 3-fold increase, read-out: AK-based Prestwick Library Screening Results, P. aeruginosa (fold increase in extracellular AK activity)) is reported as 1.1, the fold induction at 50 µM (E. cloacae; cutoff for positive-scoring molecules 3-fold increase, read-out: AK-based Prestwick Library Screening Results, E. cloacae (fold increase in extracellular AK activity)) is reported as 2 and the fold induction at 50 µM (E. coli; cutoff for positive-scoring molecules 3-fold increase, read-out: AK-based Prestwick Library Screening Results, E. coli (fold increase in extracellular AK activity)) is reported as 11.8. It also gave a fold induction at 50 µM (E. faecium; cutoff for positive-scoring molecules 3-fold increase, read-out: AK-based Prestwick Library Screening Results, E. faecium (fold increase in extracellular AK activity)) of 1, a fold induction at 50 µM (K. pneumoniae; cutoff for positive-scoring molecules 3-fold increase, read-out: AK-based Prestwick Library Screening Results, K. pneumoniae (fold increase in extracellular AK activity)) of 3.2 and a fold induction at 50 µM ([1]; cutoff for positive-scoring molecules 3-fold increase, read-out: AK-based Prestwick Library Screening Results, A. baumannii (fold increase in extracellular AK activity)) of 1.1. It also gave a fold induction at 50 µM ([2]; cutoff for positive-scoring molecules 3-fold increase, read-out: AK-based Prestwick Library Screening Results, S. aureus (fold increase in extracellular AK activity)) of 5.3.
Work on `CCN1C[C@]2(COC)CC[C@H](OC)[C@]34C5C[C@@H]6[C@@H](OC)C[C@@]7(OCO[C@@]7(C13)[C@@H](O)C24)C5[C@H]6OC` (stereo partly drawn) [Delcorine] yielded a fold induction at 50 µM (P. aeruginosa; planktonic, […], read-out: AK-based Prestwick Library Screening Results, P. aeruginosa (fold increase in extracellular AK activity)) of 0.9, a fold induction at 50 µM (E. cloacae; planktonic, […], read-out: AK-based Prestwick Library Screening Results, E. cloacae (fold increase in extracellular AK activity)) of 1.2 and a fold induction at 50 µM (E. coli; planktonic, […], read-out: AK-based Prestwick Library Screening Results, E. coli (fold increase in extracellular AK activity)) of 0.8. The fold induction at 50 µM (E. faecium; planktonic, […], read-out: AK-based Prestwick Library Screening Results, E. faecium (fold increase in extracellular AK activity)) was 0.9, the fold induction at 50 µM (K. pneumoniae; planktonic, […], read-out: AK-based Prestwick Library Screening Results, K. pneumoniae (fold increase in extracellular AK activity)) was 0.7 and the fold induction at 50 µM ([1]; planktonic, […], read-out: AK-based Prestwick Library Screening Results, A. baumannii (fold increase in extracellular AK activity)) was 0.9. For the same compound, the fold induction at 50 µM ([2]; planktonic, […], read-out: AK-based Prestwick Library Screening Results, S. aureus (fold increase in extracellular AK activity)) was 0.7.
`CNC(=C[N+](=O)[O-])NCCSCc1ccc(CN(C)C)o1` [Ranitidine hydrochloride] gave a fold induction at 50 µM (P. aeruginosa; [3]) of 1.3, a fold induction at 50 µM (E. cloacae; [4]) of 1.5 and a fold induction at 50 µM (E. coli; [5]) of 1.4. The fold induction at 50 µM (E. faecium; [6]) was 1.1, the fold induction at 50 µM (K. pneumoniae; [7]) was 0.9 and the fold induction at 50 µM [1, 8] was 1.1. The fold induction at 50 µM [2, 9] was 1.2.
With `Cc1cccc(N(C)C(=S)Oc2ccc3ccccc3c2)c1` [Tolnaftate] the fold induction at 50 µM (P. aeruginosa; [3]) was 1, the fold induction at 50 µM (E. cloacae; [4]) was 1.2 and the fold induction at 50 µM (E. coli; [5]) was 1.1. The fold induction at 50 µM (E. faecium; [6]) was 1, the fold induction at 50 µM (K. pneumoniae; [7]) was 0.9 and the fold induction at 50 µM [1, 8] was 1.5. It also gave a fold induction at 50 µM [2, 9] of 1.3.
For `CCC1=C(C)CN(C(=O)NCCc2ccc(S(=O)(=O)NC(=O)N[C@H]3CC[C@H](C)CC3)cc2)C1=O` [Glimepiride], the fold induction at 50 µM (P. aeruginosa; planktonic, cutoff for positive-scoring molecules 3-fold increase, read-out: AK-based Prestwick Library Screening Results, P. aeruginosa (fold increase in extracellular AK activity)) was 0.7, the fold induction at 50 µM (E. cloacae; planktonic, cutoff for positive-scoring molecules 3-fold increase, read-out: AK-based Prestwick Library Screening Results, E. cloacae (fold increase in extracellular AK activity)) was 0.9 and the fold induction at 50 µM (E. coli; planktonic, cutoff for positive-scoring molecules 3-fold increase, read-out: AK-based Prestwick Library Screening Results, E. coli (fold increase in extracellular AK activity)) was 0.5. The fold induction at 50 µM (E. faecium; planktonic, cutoff for positive-scoring molecules 3-fold increase, read-out: AK-based Prestwick Library Screening Results, E. faecium (fold increase in extracellular AK activity)) was 1.4, the fold induction at 50 µM (K. pneumoniae; planktonic, cutoff for positive-scoring molecules 3-fold increase, read-out: AK-based Prestwick Library Screening Results, K. pneumoniae (fold increase in extracellular AK activity)) was 0.7 and the fold induction at 50 µM ([1]; planktonic, cutoff for positive-scoring molecules 3-fold increase, read-out: AK-based Prestwick Library Screening Results, A. baumannii (fold increase in extracellular AK activity)) was 0.7. For the same compound, the fold induction at 50 µM ([2]; planktonic, cutoff for positive-scoring molecules 3-fold increase, read-out: AK-based Prestwick Library Screening Results, S. aureus (fold increase in extracellular AK activity)) was 0.5.
With `CCn1cc(C(=O)O)c(=O)c2cc(F)c(N3CCNC(C)C3)c(F)c21` (stereo not drawn) [Lomefloxacin hydrochloride] the fold induction at 50 µM (P. aeruginosa; [3]) was 30.2, the fold induction at 50 µM (E. cloacae; [4]) was 3.5 and the fold induction at 50 µM (E. coli; [5]) was 26.8. For the same compound, the fold induction at 50 µM (E. faecium; [6]) was 1.5, the fold induction at 50 µM (K. pneumoniae; [7]) was 1 and the fold induction at 50 µM [1, 8] was 3.8. For the same compound, the fold induction at 50 µM [2, 9] was 3.4.
